Where two headings read alike, the source gives them in different places.
Tests used:
[1] = system: Tamiflu-resistant 2009 pandemic influenza A (H1N1) virus (H275Y mutation in neuraminidase); assay: in vitro; conditions: dog, SI (selective index = CC50/EC50)
in vitro = conditions: dog, CC50 (μM)
[2] = system: Tamiflu-resistant 2009 pandemic influenza A (H1N1) virus (H275Y mutation in neuraminidase); conditions: for SI (selective index = CC50/EC50), H1N1 Tamiflu-resistant: dog
[3] = system: Madin-Darby canine kidney (MDCK) cells
H1N1 influenza virus = assay: In vitro anti-H1N1 influenza virus activity (oseltamivir footnote); format: cell-based
[4] = read-out: EC50 (μM), H1N1 Tamiflu-resistant
[5] = read-out: EC50 (μM), H1N1 Tamiflu-resistant virus

SMILES | selectivity ratio ([1]; H1N1 Tamiflu-resistant) | CC50 (in vitro) [µM] | EC50 [2, 4] [µM] | EC50 [2, 5] [µM] | CC50 [3] [µM] | also measured
O=c1cc(-c2ccccc2)oc2cc(O)c(O)c(O)c12 [Baicalein, reference compound] | > 6.5 | > 300 | 46.2 |  |  | selectivity ratio ([1]; H1N1 Tamiflu-resistant virus): > 3.3
O=C(O)[C@H]1O[C@@H](Oc2cc3oc(-c4ccccc4)cc(=O)c3c(O)c2O)[C@H](O)[C@@H](O)[C@@H]1O [Baicalin, reference compound] | > 4.3 | > 300 | 69.3 |  |  | 
COc1cc2oc(-c3ccccc3Br)cc(=O)c2c(OC)c1OC [Compound 2k, 2-(2-Bromophenyl)-5,6,7-trimethoxy-4H-chromen-4-one] | 8 | 128 | 16 |  |  | 
COc1cc2oc(-c3cccc(Br)c3)cc(=O)c2c(OC)c1OC [Compound 2l, 2-(3-Bromophenyl)-5,6,7-trimethoxy-4H-chromen-4-one] | > 8 | 32.1 | 4 |  |  | 
COc1cc2oc(-c3ccc(Br)cc3)cc(=O)c2c(OC)c1OC [Compound 2m, 2-(4-Bromophenyl)-5,6,7-trimethoxy-4H-chromen-4-one] | 0.7 | 128 | 192 |  |  | 
O=c1cc(-c2ccccc2)oc2cc(O)c(O)c(O)c12 [Compound 3a] |  |  |  | 92.3 | > 300 | 
O=c1cc(-c2ccccc2Cl)oc2cc(O)c(O)c(O)c12 [Compound 3b] |  |  |  | 10.2 | > 300 | 
O=c1cc(-c2cccc(Cl)c2)oc2cc(O)c(O)c(O)c12 [Compound 3c] |  |  |  | 50 | > 300 | SI (selective index = CC50/EC50), H1N1 Tamiflu-resistant virus [2]: >6.0
O=c1cc(-c2ccc(Cl)cc2)oc2cc(O)c(O)c(O)c12 [Compound 3d] |  |  |  | 10.2 | > 300 | 
O=c1cc(-c2ccc(Cl)cc2Cl)oc2cc(O)c(O)c(O)c12 [Compound 3e] |  |  |  | 73.7 | > 300 | SI (selective index = CC50/EC50), H1N1 Tamiflu-resistant virus [2]: >4.1
O=c1cc(-c2ccc(F)c(Br)c2)oc2cc(O)c(O)c(O)c12 [Compound 3g] |  |  |  | 204 | > 300 | SI (selective index = CC50/EC50), H1N1 Tamiflu-resistant virus [2]: >1.5
O=C(O)c1ccc(-c2cc(=O)c3c(O)c(O)c(O)cc3o2)cc1 [Compound 3h] |  |  |  | 39.7 | > 300 | SI (selective index = CC50/EC50), H1N1 Tamiflu-resistant virus [2]: >7.6
O=c1cc(-c2ccc(-c3ccccc3)cc2)oc2cc(O)c(O)c(O)c12 [Compound 3i] |  |  |  | 72 | > 300 | SI (selective index = CC50/EC50), H1N1 Tamiflu-resistant virus [2]: >4.2
O=c1cc(-c2ccc([N+](=O)[O-])cc2)oc2cc(O)c(O)c(O)c12 [Compound 3j] |  |  |  | 18.1 | > 300 | SI (selective index = CC50/EC50), H1N1 Tamiflu-resistant virus [2]: >16.6
COc1cc2oc(-c3ccccc3Br)cc(=O)c2c(O)c1OC [Compound 4a, 2-(2-Bromophenyl)-5-hydroxy-6,7-dimethoxy-4H-chromen-4-one] | 8.3 | 133 | 16.1 |  |  | 
COc1cc2oc(-c3cccc(Br)c3)cc(=O)c2c(O)c1OC [Compound 4b, 2-(3-Bromophenyl)-5-hydroxy-6,7-dimethoxy-4H-chromen-4-one] | > 15.8 | 66.5 | 4.2 |  |  | 
COc1cc2oc(-c3ccc(Br)cc3)cc(=O)c2c(O)c1OC [Compound 4c, 2-(4-Bromophenyl)-5-hydroxy-6,7-dimethoxy-4H-chromen-4-one] | > 66.7 | > 300 | 4.2 |  |  | SI (selective index = CC50/EC50), H1N1 Tamiflu-resistant [2]: >71.4
COc1c(O)cc2oc(-c3ccccc3Br)cc(=O)c2c1O [Compound 5a, 2-(2-Bromophenyl)-5,7-dihydroxy-6-methoxy-4H-chromen-4-one] | > 34.9 | > 300 | 8.6 |  |  | 
COc1c(O)cc2oc(-c3cccc(Br)c3)cc(=O)c2c1O [Compound 5b, 2-(3-Bromophenyl)-5,7-dihydroxy-6-methoxy-4H-chromen-4-one] | > 66.7 | > 300 | 4.3 |  |  | SI (selective index = CC50/EC50), H1N1 Tamiflu-resistant [2]: >69.8
COc1c(O)cc2oc(-c3ccc(Br)cc3)cc(=O)c2c1O [Compound 5c, 2-(4-Bromophenyl)-5,7-dihydroxy-6-methoxy-4H-chromen-4-one] | > 66.7 | > 300 | 4.3 |  |  | SI (selective index = CC50/EC50), H1N1 Tamiflu-resistant [2]: >70.0
O=c1cc(-c2ccccc2Br)oc2cc(O)c(O)c(O)c12 [Compound 6a, 2-(2-Bromophenyl)-5,6,7-trihydroxy-4H-chromen-4-one] | > 33.3 | > 300 | 9 | 9 |  | selectivity ratio ([1]; H1N1 Tamiflu-resistant virus): > 33.3
O=c1cc(-c2cccc(Br)c2)oc2cc(O)c(O)c(O)c12 [Compound 6b, 2-(3-Bromophenyl)-5,6,7-trihydroxy-4H-chromen-4-one] | > 66.7 | > 300 | 4.5 | 4.5 |  | selectivity ratio ([1]; H1N1 Tamiflu-resistant virus): > 66.7; SI (selective index = CC50/EC50), H1N1 Tamiflu-resistant [2]: >66.7
O=c1cc(-c2ccc(Br)cc2)oc2cc(O)c(O)c(O)c12 [Compound 6c, 2-(4-Bromophenyl)-5,6,7-trihydroxy-4H-chromen-4-one] | > 66.7 | > 300 | 4.5 | 4.5 |  | selectivity ratio ([1]; H1N1 Tamiflu-resistant virus): > 66.7; SI (selective index = CC50/EC50), H1N1 Tamiflu-resistant [2]: >66.7
NC(=O)c1ncn([C@@H]2O[C@H](CO)[C@@H](O)[C@H]2O)n1 [Ribavirin, reference compound] | > 11.7 | > 300 | 25.6 | 25.6 |  | selectivity ratio ([1]; H1N1 Tamiflu-resistant virus): > 11.7
CCOC(=O)C1=C[C@@H](OC(CC)CC)[C@H](NC(C)=O)[C@@H](N)C1 [oseltamivir, reference compound] |  |  |  |  |  | EC50 (H1N1 influenza virus): 32 µM; activity against H1N1 Tamiflu-resistant virus [2]: void of activity

Reference: patent US20150329515A1, “COMPOSITION AND METHOD FOR TREATING OR PREVENTING INFLUENZA VIRUS INFECTION” (National Defense Medical Center, priority 2014, published 2015)
